Test results taken from US10301291B2, “Imidazole derivative having JNK inhibitory activity and use thereof” (SAMJIN PHARMACEUTICAL CO., LTD., priority 2016, dated 2019).

molecular target: JNK3 (Homo sapiens (Human), UniProt P53779); experiment: Measurement of JNK3 enzyme activity (33P-ATP filter-binding); assay type: biochemical; settings: human JNK3, ATP 10 μM, ATF2 3 μM
Procedure: The changes in JNK3 enzyme activity resulting from being treated with the inventive imidazole derivative (Formula 1) shown in a following Table 1 were identified through IC50.
First of all, after a substrate was inserted into a prepared base reaction buffer solution (20 mM Hepes ([…]), 10 mM MgCl2, 1 mM EGTA, 0.02% Brij35, 0.02 mg/ml BSA, 0.1 mM Na3VO4, 2 mM DTT, 1% DMSO), a human JNK3 enzyme was added into a prepared substrate solution and then mixed together. As the substrate, ATP (10 μM) and ATF2 (3 μM) were used, among which the ATP was also used as a common substrate. Then, compounds of Examples 1-18 and 25-36, which were dissolved in 100% DMSO, were inserted into an enzyme reaction solution, and then cultured at room temperature for 20 minutes. Then, ^33P-ATP was inserted into the above reaction mixture solution to initiate a reaction, then cultured at room temperature for 2 hours, and then an enzyme activity was detected by means of a filter-binding method.
Particularly, after each 25 μl of the resulting solution was slowly spotted on P81 paper, it was inserted into a scintillation vial, and washed with 0.75% phosphoric acid four times for 10 minutes each, and with acetone once for 5 minutes. 5 ml of scintillation cocktail was inserted into the above scintillation vial and a resulting signal was read by means of a scintillation counter.
IC50 values of compounds of Examples 1-18 and 25-36 with regard to JNK3 enzyme activity were shown in a following Table 2.

Sequence of JNK3 (P53779 whole entry): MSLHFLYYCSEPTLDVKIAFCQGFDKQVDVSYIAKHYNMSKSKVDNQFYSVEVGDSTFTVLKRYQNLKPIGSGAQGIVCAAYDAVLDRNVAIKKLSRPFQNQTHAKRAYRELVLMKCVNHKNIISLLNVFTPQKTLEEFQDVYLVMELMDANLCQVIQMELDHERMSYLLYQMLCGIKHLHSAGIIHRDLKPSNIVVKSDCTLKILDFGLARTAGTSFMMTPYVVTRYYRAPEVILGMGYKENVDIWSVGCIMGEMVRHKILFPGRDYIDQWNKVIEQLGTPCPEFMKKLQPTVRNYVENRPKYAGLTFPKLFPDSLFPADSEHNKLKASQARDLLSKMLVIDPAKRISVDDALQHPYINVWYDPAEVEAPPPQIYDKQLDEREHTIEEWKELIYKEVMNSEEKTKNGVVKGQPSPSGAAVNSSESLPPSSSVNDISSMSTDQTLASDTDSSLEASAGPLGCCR

Q: Which IC50 does the source give for `CC(O)CNc1nccc(-n2c(CC#N)cnc2-c2ccc3c(c2)OCO3)n1` (stereo not drawn) [Example 13, 2-(2-(benzo[d][1,3]dioxol-5-yl)-1-(2-(2-hydroxypropylamino)pyrimidine-4-yl)-1H-imidazole-5-yl)acetonitrile] here?
A: 30 to 100 nM

Q: How did the IC50 turn out when `N#CCc1cnc(-c2ccc3c(c2)OCCO3)n1-c1ccnc(NC2CCCCC2)n1` [Example 8, 2-(1-(2-(cyclohexylamino)pyrimidine-4-yl)-2-(2,3-dihydrobenzo[b][1,4]dioxin-6-yl)-1H-imidazole-5-yl)acetonitrile] was run?
A: > 100 nM

Q: `N#CCc1cnc(-c2ccc3c(c2)OCCO3)n1-c1ccnc(NC2CCCN(C(=O)C3CC3)C2)n1` (stereo not drawn) [Example 32, 2-(1-(2-(1-(cyclopropanecarbonyl)piperidine-3-ylamino)pyrimidine-4-yl)-2-(2,3-dihydrobenzo[b][1,4]dioxin-6-yl)-1H-imidazole-5-yl)acetonitrile] was tested. Which IC50 did it give?
A: 30 to 100 nM

Q: Which IC50 does the source give for `CC(O)CNc1nccc(-n2c(CC#N)cnc2-c2ccc3ccccc3c2)n1` (stereo not drawn) [Example 16, 2-(1-(2-(2-hydroxypropylamino)pyrimidine-4-yl)-2-(naphthalene-2-yl)-1H-imidazole-5-yl)acetonitrile] here?
A: 30 to 100 nM

Q: For `N#CCc1cnc(-c2ccc3c(c2)OCCO3)n1-c1ccnc(NC2CCCNC2)n1` (stereo not drawn) [Example 26, 2-(2-(2,3-dihydrobenzo[b][1,4]dioxin-6-yl)-1-(2-(piperidine-3-ylamino)pyrimidine-4-yl)-1H-imidazole-5-yl)acetonitrile], which IC50 is on record?
A: 30 to 100 nM

Q: With `CC(O)CNc1nccc(-n2c(CC#N)cnc2-c2ccc(F)c(C(F)(F)F)c2)n1` (stereo not drawn) [Example 18, 2-(2-(4-fluoro-3-(trifluoromethyl)phenyl)-1-(2-(2-hydroxypropylamino)pyrimidine-4-yl)-1H-imidazole-5-yl)acetonitrile] as the compound, how does the IC50 read?
A: 30 to 100 nM

Q: Which IC50 does the source give for `CC(O)CNc1nccc(-n2c(CC#N)cnc2-c2ccc(Cl)c(Cl)c2)n1` (stereo not drawn) [Example 17, 2-(2-(3,4-dichlorophenyl)-1-(2-(2-hydroxypropylamino)pyrimidine-4-yl)-1H-imidazole-5-yl)acetonitrile] here?
A: 30 to 100 nM

Q: For `CC(O)CNc1nccc(-n2c(CC#N)cnc2-c2ccc3c(c2)OCCO3)n1` (stereo not drawn) [Example 14, 2-(2-(2,3-dihydrobenzo[b][1,4]dioxin-6-yl)-1-(2-(2-hydroxypropylamino)pyrimidine-4-yl)-1H-imidazole-5-yl)acetonitrile], which IC50 is on record?
A: 30 to 100 nM

Q: With `N#CCc1cnc(-c2ccc(F)c(C(F)(F)F)c2)n1-c1ccnc(NC2CCCNC2)n1` (stereo not drawn) [Example 30, 2-(2-(4-fluoro-3-(trifluoromethyl)phenyl)-1-(2-(piperidine-3-ylamino)pyrimidine-4-yl)-1H-imidazole-5-yl)acetonitrile] as the compound, how does the IC50 read?
A: 30 to 100 nM

Q: How did the IC50 turn out when `N#CCc1cnc(-c2ccc(Cl)c(Cl)c2)n1-c1ccnc(NC2CCOCC2)n1` [Example 5, 2-(2-(3,4-dichlorophenyl)-1-(2-(tetrahydro-2H-pyran-4-ylamino)pyrimidine-4-yl)-1H-imidazole-5-yl)acetonitrile] was run?
A: 30 to 100 nM

Q: Which IC50 does the source give for `N#CCc1cnc(-c2ccc(Cl)c(Cl)c2)n1-c1ccnc(NC2CCCNC2)n1` (stereo not drawn) [Example 29, 2-(2-(3,4-dichlorophenyl)-1-(2-(piperidine-3-ylamino)pyrimidine-4-yl)-1H-imidazole-5-yl)acetonitrile] here?
A: 30 to 100 nM

Q: `N#CCc1cnc(-c2ccc(F)c(C(F)(F)F)c2)n1-c1ccnc(NC2CCCN(C(=O)C3CC3)C2)n1` (stereo not drawn) [Example 36, 2-(1-(2-(1-(cyclopropanecarbonyl)piperidine-3-ylamino)pyrimidine-4-yl)-2-(4-fluoro-3-(trifluoromethyl)phenyl)-1H-imidazole-5-yl)acetonitrile] was tested. Which IC50 did it give?
A: 30 to 100 nM

Q: Which IC50 does the source give for `CC(O)CNc1nccc(-n2c(CC#N)cnc2-c2ccc3ccccc3n2)n1` (stereo not drawn) [Example 15, 2-(1-(2-(2-hydroxypropylamino)pyrimidine-4-yl)-2-(quinoline-2-yl)-1H-imidazole-5-yl)acetonitrile] here?
A: 30 to 100 nM

Q: How did the IC50 turn out when `N#CCc1cnc(-c2ccc3c(c2)OCO3)n1-c1ccnc(NC2CCCCC2)n1` [Example 7, 2-(2-(benzo[d][1,3]dioxol-5-yl)-1-(2-(cyclohexylamino)pyrimidine-4-yl)-1H-imidazole-5-yl)acetonitrile] was run?
A: > 100 nM

Q: For `N#CCc1cnc(-c2ccc3c(c2)OCCO3)n1-c1ccnc(NC2CCOCC2)n1` [Example 2, 2-(2-(2,3-dihydrobenzo[b][1,4]dioxin-6-yl)-1-(2-(tetrahydro-2H-pyran-4-ylamino)pyrimidine-4-yl)-1H-imidazole-5-yl)acetonitrile], which IC50 is on record?
A: > 100 nM

Q: Which IC50 does the source give for `N#CCc1cnc(-c2ccc3occc3c2)n1-c1ccnc(NC2CCCN(C(=O)C3CC3)C2)n1` (stereo not drawn) [Example 37] here?
A: < 30 nM

Q: `N#CCc1cnc(-c2ccc3ccccc3c2)n1-c1ccnc(NC2CCCNC2)n1` (stereo not drawn) [Example 28, 2-(2-(naphthalene-2-yl)-1-(2-(piperidine-3-ylamino)pyrimidine-4-yl)-1H-imidazole-5-yl)acetonitrile] was tested. Which IC50 did it give?
A: < 30 nM

Q: Which IC50 does the source give for `N#CCc1cnc(-c2ccc3ccccc3n2)n1-c1ccnc(NC2CCOCC2)n1` [Example 3, 2-(2-(quinoline-2-yl)-1-(2-(tetrahydro-2H-pyran-4-ylamino)pyrimidine-4-yl)-1H-imidazole-5-yl) acetonitrile] here?
A: 30 to 100 nM

Q: `N#CCc1cnc(-c2ccc3ccccc3c2)n1-c1ccnc(NC2CCCCC2)n1` [Example 10, 2-(1-(2-(cyclohexylamino)pyrimidine-4-yl)-2-(naphthalene-2-yl)-1H-imidazole-5-yl)acetonitrile] was tested. Which IC50 did it give?
A: 30 to 100 nM

Q: With `N#CCc1cnc(-c2ccc3ccccc3n2)n1-c1ccnc(NC2CCCNC2)n1` (stereo not drawn) [Example 27, 2-(1-(2-(piperidine-3-ylamino)pyrimidine-4-yl)-2-(quinoline-2-yl)-1H-imidazole-5-yl)acetonitrile] as the compound, how does the IC50 read?
A: 30 to 100 nM

Q: Which IC50 does the source give for `N#CCc1cnc(-c2ccc3c(c2)OCO3)n1-c1ccnc(NC2CCCN(C(=O)C3CC3)C2)n1` (stereo not drawn) [Example 31, 2-(2-(benzo[d][1,3]dioxol-5-yl)-1-(2-(1-(cyclopropanecarbonyl)piperidine-3-ylamino)pyrimidine-4-yl)-1H-imidazole-5-yl)acetonitrile] here?
A: 30 to 100 nM

Q: `N#CCc1cnc(-c2ccc3c(c2)OCO3)n1-c1ccnc(NC2CCOCC2)n1` [Example 1, 2-(2-(benzo[d][1,3]dioxol-5-yl)-1-(2-(tetrahydro-2H-pyran-4-ylamino)pyrimidine-4-yl)-1H-imidazole-5-yl)acetonitrile] was tested. Which IC50 did it give?
A: 30 to 100 nM

Q: For `N#CCc1cnc(-c2ccc(F)c(C(F)(F)F)c2)n1-c1ccnc(NC2CCCCC2)n1` [Example 12, 2-(1-(2-(cyclohexylamino)pyrimidine-4-yl)-2-(4-fluoro-3-(trifluoromethyl)phenyl)-1H-imidazole-5-yl)acetonitrile], which IC50 is on record?
A: > 100 nM

Q: With `N#CCc1cnc(-c2ccc3ccccc3n2)n1-c1ccnc(NC2CCCCC2)n1` [Example 9, 2-(1-(2-(cyclohexylamino)pyrimidine-4-yl)-2-(quinoline-2-yl)-1H-imidazole-5-yl)acetonitrile] as the compound, how does the IC50 read?
A: > 100 nM

Q: How did the IC50 turn out when `N#CCc1cnc(-c2ccc(F)c(C(F)(F)F)c2)n1-c1ccnc(NC2CCOCC2)n1` [Example 6, 2-(2-(4-fluoro-3-(trifluoromethyl)phenyl)-1-(2-(tetrahydro-2H-pyran-4-ylamino)pyrimidine-4-yl)-1H-imidazole-5-yl)acetonitrile] was run?
A: 30 to 100 nM

Q: `N#CCc1cnc(-c2ccc(Cl)c(Cl)c2)n1-c1ccnc(NC2CCCCC2)n1` [Example 11, 2-(1-(2-(cyclohexylamino)pyrimidine-4-yl)-2-(3,4-dichlorophenphenyl)-1H-imidazole-5-yl)acetonitrile] was tested. Which IC50 did it give?
A: 30 to 100 nM

Q: For `N#CCc1cnc(-c2ccc3c(c2)OCO3)n1-c1ccnc(NC2CCCNC2)n1` (stereo not drawn) [Example 25, 2-(2-(benzo[d][1,3]dioxol-5-yl)-1-(2-(piperidine-3-ylamino)pyrimidine-4-yl)-1H-imidazole-5-yl) acetonitrile], which IC50 is on record?
A: > 100 nM

Q: With `N#CCc1cnc(-c2ccc3ccccc3c2)n1-c1ccnc(NC2CCOCC2)n1` [Example 4, 2-(2-(naphthalene-2-yl)-1-(2-(tetrahydro-2H-pyran-4-ylamino)pyrimidine-4-yl)-1H-imidazole-5-yl)acetonitrile] as the compound, how does the IC50 read?
A: < 30 nM

Q: With `N#CCc1cnc(-c2ccc3ccccc3n2)n1-c1ccnc(NC2CCCN(C(=O)C3CC3)C2)n1` (stereo not drawn) [Example 33, 2-(1-(2-(1-(cyclopropanecarbonyl)piperidine-3-ylamino)pyrimidine-4-yl)-2-(quinoline-2-yl)-1H-imidazole-5-yl)acetonitrile] as the compound, how does the IC50 read?
A: < 30 nM

Q: Which IC50 does the source give for `N#CCc1cnc(-c2ccc(Cl)c(Cl)c2)n1-c1ccnc(NC2CCCN(C(=O)C3CC3)C2)n1` (stereo not drawn) [Example 35, 2-(1-(2-(1-(cyclopropanecarbonyl)piperidine-3-ylamino)pyrimidine-4-yl)-2-(3,4-dichlorophenyl)-1H-imidazole-5-yl)acetonitrile] here?
A: 30 to 100 nM
